Results on five compounds are retold here after US11401255B2, “Small molecule activators of Parkin enzyme function” (Mayo Foundation for Medical Education and Research, priority 2016, dated 2022).

The inhibition is the change of the read-out against control, counted positive when it falls.

Data set [1] addresses FLAG-Parkin C431S (Homo sapiens (Human), UniProt O60260, C431S). Description: Ub-charging of FLAG-Parkin C431S (western blot). The format is cell-based. To be noted: 5 μM or 1 μM, 2 h before 3.5 μM CCCP. The method, then:
Another measure of Parkin activation is Ub charging of Parkin. Parkin receives Ub from an E2 enzyme to transfer it to a substrate protein. The Ub is bound by Parkin C431 in an unstable thioester bond. A serine substitution of this amino acid (C431S) leads to a stable oxyester bond. The bound Ub can then be visualized as a band shift in Western blot experiments. HeLa 3×FLAG-Parkin C431S cells were seeded in 12-well plates and allowed to attach overnight. Cells were treated with 5 μM (top panels) or 1 μM (bottom panels) of Compounds 1, 2, 3, 4, and 31 2 h before adding CCCP for another 2 h. 10 μM CCCP was added to positive control (PC) wells whereas all other samples received a low dose concentration of 3.5 μM. Cells were harvested in boiling hot SDS lysis buffer and protein concentration was determined by BCA. Samples were split and left either untreated or were treated with NaOH as indicated. Samples were run on an 8-16% Tris-Glycine gel, blotted onto membranes and probed with antibodies against Flag and pS65-Ub. GAPDH served as a loading control. Band shift indicates Parkin binding to Ubiquitin, which is cleavable with NaOH.
Cells were harvested in RIPA buffer or NP-40 lysis buffer containing protease and phosphatase inhibitors (Complete and PhosStop, Roche Applied Science) with the exception of Parkin Ub charging experiments where preheated (95° C.) SDS lysis buffer (50 mM Tris pH 7.6, 150 mM NaCl, 1% SDS) was used. Concentration of cell lysates was determined with bicinchoninic acid (Pierce Biotechnology). For Parkin Ub charging experiments, aliquots of lysates were treated with […] for 1 h at 37° C. pH was neutralized with equinormal HCl.
Protein was subjected to SDS-PAGE using 4-20% or 8-16% Tris-Glycine gels (Invitrogen) and transferred onto polyvinylidene fluoride (PVDF) (Millipore). Membranes were incubated with primary antibodies overnight at 4° C. followed by HRP-conjugated secondary antibodies (1:10,000; Jackson ImmunoResearch Laboratories). Primary antibodies used: beta III tubulin (rabbit, 1:1000, CST, #5568, CST), FLAG (mouse, 1:250,000, Sigma, F3165), GAPDH (mouse, 1:100,000-500,000, Meridian Life science, H86504M), GST (1:10,000, Sigma, G7781), MFN1 (mouse, 1:5,000, Abcam, ab57602), MFN2 (mouse, 1:5,000, Abcam, ab56889), Parkin (mouse, 1:2,000, Cell Signaling, #4211), pSer65-Ub (rabbit, 1:15,000, in-house (Fiesel et al., EMBO Reports (2015) 16:1114-30; Fiesel et al., (2015) Autophagy 11:2125-2126)), TOM70 (rabbit, 1:5,000, Proteintech, 14528-1-AP), UBE2L3 (rabbit, 1:10,000, ProteinTech, 14415-1-AP), VDAC1 (mouse, 1:5,000, Abcam, ab14734), vinculin (mouse, 1:100,000, Sigma, V9131).
HeLa 3×FLAG-Parkin C431S cells were seeded in 6-well plates and allowed to attach overnight. Cells were treated with […] of compounds 5, 21-28, 32, 33, or 43-46 2 h before adding CCCP for another 2 h. 10 VM CCCP was added to positive control (PC) wells, 3.5 μM CCCP to compound (+) and negative control (NC) wells. […] Cells were harvested in boiling hot SDS lysis buffer and protein concentration was determined by BCA. Samples were split and left either untreated or were treated with NaOH as indicated. Samples were run on an 8-16% Tris-Glycine gel, blotted onto membranes and probed with antibodies against Flag. Vinculin served as a loading control. Band shift indicates Parkin binding to Ubiquitin, which is cleavable with NaOH (FIG. 21).
For orientation: A western blot detects proteins with antibodies after separation by electrophoresis.

Data set [2] concerns HepG2 cells. Description: Cytotoxicity assay (resazurin), HepG2 cell proliferation inhibition. The format is cell-based. The settings on record: Homo sapiens, 24 hours. The procedure:
Compounds 1-4 and 31 were tested in a cytotoxicity assay. The assay was based on the conversion of the non-fluorescent dye resazurin to the fluorescent compound rezorufin in the reducing environment of living cell cytoplasm. The more living cells in a sample result in higher fluorescence, while less living cells result in lower fluorescence.
HepG2 cells were cultivated in a humidified atmosphere at 37° C. and 5% CO2 in 75 cm^2 flasks to 80-90% of confluence and split twice per week with a subcultivation ratio of 1:4. The cell layer was rinsed with PBS to remove all traces of serum. Then 3.0 mL of solution containing 0.25% (w/v) trypsin and 0.53 mM EDTA was added to the flask and incubated about 10 minutes. The HepG2 cells were detached using a scraper and re-suspended in DMEM containing 10% FBS and 2 mM glutamine. The cell suspension with a final concentration of 5×10^5 cells/mL was dispensed into sterile 96-well black wall clear flat bottom plates as previously described (McMillian et al. (2002) Cell Biol. Toxicol. 18(3):157-173; Mulvihill et al. (2009) Future Med. Chem. 1(6):1153-1171) and the test compounds were added.
The compound DMSO stock solutions were diluted with PBS to achieve an intermediate concentration of 1 mM. The cell proliferation assessment was performed at different concentrations of compounds ranging from 0.1 μM to 100 μM. Doxorubicin at a final concentration of 20 μM was used as a positive control. After compound addition, cells were incubated for 24 hours in a humidified atmosphere at 37° C. and 5% CO2.
Resazurin was added to the final concentration (50 μM) and incubated for 4 hours under the same conditions. Presence of rezorufin (cell viability) was quantified by measuring fluorescence (Ex—490 nm, Em—540 nm; see Vega-Avila and Pugsley (2011) Proc. West Pharmacol. Soc. 54:10-14).
The percent of cell proliferation inhibition was calculated by applying the following formula: […]

The target in data set [3] is CYP 2D6 (Homo sapiens (Human), UniProt P10635). Nature of the data set: in vitro. To be noted: Inhibition. The procedure: CYP450 inhibition profiling provides valuable information regarding any possible drug-drug interactions for a test compound.
All experiments were performed using P450-Glo™ Assay Systems (Promega) in accordance with the manufacturer's protocols. The P450-Glo™ Assays provide a luminescent readout-based method for measuring cytochrome P450 activity. A conventional cytochrome P450 reaction was performed by incubating the cytochrome P450 and a luminogenic cytochrome P450 substrate. The substrates in the P450-Glo™ assays are derivatives of beetle luciferin. The derivatives themselves are not substrates for luciferase but are converted by cytochrome P450s to luciferin, which in turn reacts with luciferase to produce light. The amount of light produced was directly proportional to cytochrome P450 activity. All test points were performed in quadruplicates. Control membranes (without CYPs) represented the Negative control (baseline).
The following reference compounds were used to assess CYP inhibition: […]

Sequence of CYP 2D6 (P10635 whole entry): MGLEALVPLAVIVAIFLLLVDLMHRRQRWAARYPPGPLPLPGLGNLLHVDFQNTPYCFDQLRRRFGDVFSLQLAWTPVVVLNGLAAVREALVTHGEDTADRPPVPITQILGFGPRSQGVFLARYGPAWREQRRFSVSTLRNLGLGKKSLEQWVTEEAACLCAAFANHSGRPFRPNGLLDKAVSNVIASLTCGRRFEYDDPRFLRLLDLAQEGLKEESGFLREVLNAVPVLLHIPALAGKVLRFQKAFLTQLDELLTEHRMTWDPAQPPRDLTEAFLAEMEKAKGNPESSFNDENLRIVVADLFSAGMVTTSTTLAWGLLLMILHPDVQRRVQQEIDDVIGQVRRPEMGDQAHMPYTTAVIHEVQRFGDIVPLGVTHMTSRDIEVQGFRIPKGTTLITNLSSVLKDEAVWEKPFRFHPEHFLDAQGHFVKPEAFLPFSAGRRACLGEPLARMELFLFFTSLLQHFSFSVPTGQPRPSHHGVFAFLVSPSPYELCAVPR

Turning to `O=C(Cn1cnc2c1CCCC2)Nc1ccc(-c2ccccc2)cc1` [Compound 1], in data set [1], the “Ub-charging of FLAG-Parkin C431S (WB)” value is given as “enhanced Ub-charging”. Also, in data set [2], the inhibition at 0.1 µM is -0.1%, the inhibition at 0.3 µM was -2%, the inhibition at 1 µM was -0.6% and the inhibition at 3 µM was -1.8%. Moreover, in data set [2], the inhibition at 10 µM is -3.9%, the inhibition at 30 µM was -2.5% and the inhibition at 100 µM worked out at 0.1%. The inhibition at 10 µM in data set [3] (% (individual replicates)) worked out at 18.5%. Further, in data set [3] (% Mean), the inhibition at 10 µM was determined as 17%.

In the case of `CC(C)c1nccn1CC(=O)Nc1ccc(-c2ccccc2)cc1` [Compound 2], the “Ub-charging of FLAG-Parkin C431S (WB)” value in data set [1] is “enhanced Ub-charging”. Further, in data set [2], the inhibition at 0.1 µM is -1.8%, the inhibition at 0.3 µM worked out at 2.8%, the inhibition at 1 µM is 1.2% and the inhibition at 3 µM was 5.6%. In data set [2], the inhibition at 10 µM is 2.6%, the inhibition at 30 µM turned out to be 2.4% and the inhibition at 100 µM amounted to 14.7%. Also, in data set [3] (% Mean), the inhibition at 10 µM amounted to 17.3%.

Take `CC(C)(C)Sc1ccc(NC(=O)Cn2ccnc2)cc1` [Compound 3]: in data set [1], the “Ub-charging of FLAG-Parkin C431S (WB)” value was “enhanced Ub-charging”. For the same compound, in data set [2], the inhibition at 0.1 µM is -2.1%, the inhibition at 0.3 µM worked out at 0.2%, the inhibition at 1 µM stood at 2.4% and the inhibition at 3 µM was determined as 3.9%. In data set [2], the inhibition at 10 µM was 2.6%, the inhibition at 30 µM is -0.1% and the inhibition at 100 µM amounted to 0.5%. Further, the inhibition at 10 µM in data set [3] (% (individual replicates)) came to 98.9%. Moreover, the inhibition at 10 µM in data set [3] (% Mean) amounted to 99.7%.

Turning to `O=C(Cn1ccnc1-c1ccccn1)Nc1ccc(-c2ccccc2)cc1` [Compound 4], the “Ub-charging of FLAG-Parkin C431S (WB)” value in data set [1] is “enhanced Ub-charging”. Also, in data set [2], the inhibition at 0.1 µM was -1.8%, the inhibition at 0.3 µM amounted to 0.1%, the inhibition at 1 µM was 0.8% and the inhibition at 3 µM was 5.4%. Also, in data set [2], the inhibition at 10 µM is -1.4%, the inhibition at 30 µM was -3.8% and the inhibition at 100 µM was -5.5%. In data set [3] (% Mean), the inhibition at 10 µM came to 18.4%.

Take `Cc1nc2c(c(N3CCCN(Cc4ccccc4)CC3)n1)CCCC2` [Compound 31]: the “Ub-charging of FLAG-Parkin C431S (WB)” value in data set [1] was “enhanced Ub-charging”. In data set [2], the inhibition at 0.1 µM came out at 2%, the inhibition at 0.3 µM was -0.8%, the inhibition at 1 µM is -1.5% and the inhibition at 3 µM is -0.9%. Also, in data set [2], the inhibition at 10 µM is -2.2%, the inhibition at 30 µM is -5.4% and the inhibition at 100 µM was -17.7%. Further, the inhibition at 10 µM in data set [3] (% Mean) came to 60.6%.
